The test system of series [1] is rat myoblast cell line (L6 cells). It counts as cell-based. From the text:
Considering the potency of plasmodione and the observed main metabolite 6-hydroxy–plasmodione eliminated in the urine of PD-treated mice, our primary goal was to introduce a fluorine atom at C-6 of the menadione core to block the process of drug metabolism from occurring in the host’s liver. In this aim, we prioritized the preparation of a library of 6-fluoro-3-benzylmenadiones by investigating the replacement of the trifluoromethyl group by diverse EWG and EDG groups in various loci of the aryl ring. For SAR, all compounds were tested for the inhibition of parasite growth in RBCs infected with a P. falciparum chloroquine-sensitive strain, NF54. The parasites were cultured in vitro according to known conditions. […] The cytotoxicity of the active compounds was assessed against a rat myoblast cell line (L6 cells).
Cell proliferation was assessed with resazurin, and the generally cytotoxic agent podophyllotoxin served as the positive control, as previously reported by the STPH authors M. R. and P. M. in their recently published article.

Series [2] relates to P. falciparum NF54 strain. As to the kind of experiment: P. falciparum NF54 [3H]hypoxanthine incorporation assay, 72 h, 0.5% Albumax. The series is classed as cell-based. The conditions noted are these: Plasmodium falciparum.
Where [3] appears, read: NF54, 72 h, P. falciparum NF54, 72 h, read-out: IC50.
Setting [4] is: NF54, as stated in text, read-out: IC50 against P. falciparum NF54.

Like-named read-outs stand apart in the source and are kept apart here.

Tox/L6 and IC50 data for 50 compounds are collected here from publication PMC12156041, “Design, Synthesis and Antiplasmodial Activities of a Library of Fluorine-Based 3-Benzylmenadiones” (Molecules, 2025).

A word on the IC50: it is the midpoint of a concentration-inhibition curve.

In turn, `CC1=C(Cc2cccc(C(F)(F)F)c2)C(=O)c2cc(F)ccc2C1=O` [A-a-1] had a Tox/L6 in series [1] of 12.5 µM. In addition, the IC50 in series [2] (setting [3]) turned out to be 0.082 µM.

With `CC1=C(Cc2ccccc2C(F)(F)F)C(=O)c2cc(F)ccc2C1=O` [A-a-2], the Tox/L6 in series [1] amounted to 53.4 µM. In addition, the IC50 in series [2] (setting [3]) was 0.138 µM.

Compound `CC1=C(Cc2ccc(OC(F)(F)F)cc2)C(=O)c2cc(F)ccc2C1=O` [A-a-3] returned a Tox/L6 in series [1] of 138.8 µM. In series [2] (setting [3]), the IC50 was found to be 0.33 µM. For the compound `CC1=C(Cc2ccc(F)cc2)C(=O)c2cc(F)ccc2C1=O` [A-a-4], the Tox/L6 in series [1] is listed as 174.5 µM. In series [2] (setting [3]), the IC50 came to 0.302 µM. In series [1], `CC1=C(Cc2cccc(F)c2)C(=O)c2cc(F)ccc2C1=O` [A-a-5] registered a Tox/L6 of 6.6 µM. Also, the 50% inhibitory concentration (IC50) in series [2] (setting [3]) turned out to be 0.246 µM. In turn, `CC1=C(Cc2ccccc2F)C(=O)c2cc(F)ccc2C1=O` [A-a-6] showed a Tox/L6 in series [1] of 7.6 µM. Further, the IC50 in series [2] (setting [3]) turned out to be 0.119 µM.

In series [1], `CC1=C(Cc2ccc(C(F)(F)F)c(F)c2)C(=O)c2cc(F)ccc2C1=O` [A-a-7] had a Tox/L6 of 85.5 µM. Further, the IC50 in series [2] (setting [3]) worked out at 0.735 µM. `CC1=C(Cc2ccc(C(F)(F)F)c(Br)c2)C(=O)c2cc(F)ccc2C1=O` [A-a-8]: the IC50 in series [2] (setting [3]) was 0.167 µM.

With `CC1=C(Cc2ccc(F)c(C(F)(F)F)c2)C(=O)c2cc(F)ccc2C1=O` [A-a-9], the half-inhibitory concentration (IC50) in series [2] (setting [3]) was 0.149 µM. In series [1], `CC1=C(Cc2ccc(C#N)cc2)C(=O)c2cc(F)ccc2C1=O` [A-a-10] had a Tox/L6 of 95 µM. The concentration for half-maximal inhibition (IC50) in series [2] (setting [3]) came out at 0.231 µM. In turn, `CC1=C(Cc2ccccc2C#N)C(=O)c2cc(F)ccc2C1=O` [A-a-11] came in with a Tox/L6 in series [1] of 327.0 µM. Also, the half-maximal inhibitory concentration (IC50) in series [2] (setting [3]) stood at 0.264 µM. Take `CC1=C(Cc2ccc([N+](=O)[O-])cc2)C(=O)c2cc(F)ccc2C1=O` [A-a-12]: the Tox/L6 in series [1] turned out to be 307.0 µM. Also, in series [2] (setting [3]), the IC50 was 0.177 µM.

Consider `CC1=C(Cc2ccc(I)cc2)C(=O)c2cc(F)ccc2C1=O` [A-a-13], for which the Tox/L6 in series [1] is 40.9 µM. In addition, in series [2] (setting [3]), the IC50 was determined as 0.198 µM. As to `CC1=C(Cc2ccc(Cl)cc2Cl)C(=O)c2cc(F)ccc2C1=O` [A-a-14], the IC50 in series [2] (setting [3]) was 0.137 µM.

As to `CC1=C(Cc2ccc(Cl)cc2C(F)(F)F)C(=O)c2cc(F)ccc2C1=O` [A-a-15], in series [2] (setting [3]), the concentration for half-maximal inhibition (IC50) worked out at 0.103 µM.

Regarding `COc1ccc(CC2=C(C)C(=O)c3ccc(F)cc3C2=O)cc1` [A-a-16], in series [1], the Tox/L6 was found to be 195.9 µM. Moreover, the concentration for half-maximal inhibition (IC50) in series [2] (setting [3]) was 1.12 µM. In turn, `COc1cccc(CC2=C(C)C(=O)c3ccc(F)cc3C2=O)c1` [A-a-17] came in with a Tox/L6 in series [1] of 165.6 µM. For the same compound, the half-inhibitory concentration (IC50) in series [2] (setting [3]) came out at 0.361 µM. For the compound `COc1ccccc1CC1=C(C)C(=O)c2ccc(F)cc2C1=O` [A-a-18], the Tox/L6 in series [1] was 189.3 µM. For the same compound, the half-inhibitory concentration (IC50) in series [2] (setting [3]) was found to be 0.572 µM. The corresponding values for `COc1ccc(CC2=C(C)C(=O)c3ccc(F)cc3C2=O)cc1OC` [A-a-19] are 5.6 µM and 0.171 µM. The corresponding values for `COc1ccc(CC2=C(C)C(=O)c3ccc(F)cc3C2=O)c(OC)c1` [A-a-20] are 106.6 µM and 0.316 µM. In series [1], `CC1=C(Cc2ccc3c(c2)OCO3)C(=O)c2cc(F)ccc2C1=O` [A-a-21] showed a Tox/L6 of 165.6 µM. The half-maximal inhibitory concentration (IC50) in series [2] (setting [3]) is 0.07 µM; in series [2] (setting [4]) it was under 0.1 µM. As to `CC1=C(Cc2ccc3c(c2)OCCO3)C(=O)c2cc(F)ccc2C1=O` [A-a-22], the 50% inhibitory concentration (IC50) in series [2] (setting [3]) stood at 0.311 µM. Take `CC1=C(Cc2ccc3c(c2)OC(C)(C)O3)C(=O)c2cc(F)ccc2C1=O` [A-a-23]: the 50% inhibitory concentration (IC50) in series [2] (setting [3]) amounted to 0.338 µM. In the case of `CC1=C(Cc2ccc3c(c2)OC(F)(F)O3)C(=O)c2cc(F)ccc2C1=O` [A-a-24], in series [2] (setting [3]), the IC50 amounted to 0.206 µM. As to `COc1ccc(CC2=C(C)C(=O)c3ccc(F)cc3C2=O)c(OC)c1OC` [A-a-25], in series [1], the Tox/L6 is 215.5 µM. Further, in series [2] (setting [3]), the IC50 is 0.34 µM. `COc1ccc(OC)c(CC2=C(C)C(=O)c3ccc(F)cc3C2=O)c1` [A-a-26] registered a Tox/L6 in series [1] of 91.7 µM. The half-inhibitory concentration (IC50) in series [2] (setting [3]) is 0.291 µM.

The compound `COc1cc(CC2=C(C)C(=O)c3ccc(F)cc3C2=O)cc(OC)c1OC` [A-a-27] registered a Tox/L6 in series [1] of 72.4 µM. Besides, the half-maximal inhibitory concentration (IC50) in series [2] (setting [3]) is 0.265 µM.

`CC1=C(Cc2cccs2)C(=O)c2cc(F)ccc2C1=O` [A-a-28] showed a Tox/L6 in series [1] of 5.8 µM. The IC50 in series [2] (setting [3]) was 0.474 µM. In series [1], `CC1=C(CC2CCCCC2)C(=O)c2cc(F)ccc2C1=O` [A-a-29] displayed a Tox/L6 of 177.8 µM. The IC50 in series [2] (setting [3]) was 0.718 µM. Consider `CC1=C(Cc2ccccc2F)C(=O)c2ccccc2C1=O` [A-b-6], for which the half-inhibitory concentration (IC50) in series [2] (setting [3]) came out at 0.453 µM. `CC1=C(Cc2ccc(C(F)(F)F)c(F)c2)C(=O)c2ccccc2C1=O` [A-b-7]: the Tox/L6 in series [1] amounted to 49.2 µM. For the same compound, in series [2] (setting [3]), the half-maximal inhibitory concentration (IC50) came out at 2.96 µM. For the compound `CC1=C(Cc2ccc(C(F)(F)F)c(Br)c2)C(=O)c2ccccc2C1=O` [A-b-8], the IC50 in series [2] (setting [3]) was 0.081 µM; in series [2] (setting [4]), under 0.1 µM. With `CC1=C(Cc2ccccc2C#N)C(=O)c2ccccc2C1=O` [A-b-11], in series [1], the Tox/L6 was found to be 186.2 µM. In addition, the IC50 in series [2] (setting [3]) was found to be 0.312 µM.

As for `CC1=C(Cc2ccc(Cl)cc2Cl)C(=O)c2ccccc2C1=O` [A-b-14], the IC50 in series [2] (setting [3]) is 0.067 µM; in series [2] (setting [4]), under 0.1 µM.

For the compound `CC1=C(Cc2ccc(Cl)cc2C(F)(F)F)C(=O)c2ccccc2C1=O` [A-b-15], the values for the 50% inhibitory concentration (IC50) in series [2] (setting [3]) and in series [2] (setting [4]) were 0.08 µM and under 0.1 µM, respectively.

In turn, `CC1=C(Cc2ccc3c(c2)OCO3)C(=O)c2ccccc2C1=O` [A-b-21] showed a Tox/L6 in series [1] of 97.9 µM. In series [2] (setting [3]), the IC50 stood at 0.2 µM. On to `CC1=C(Cc2ccc3c(c2)OCCO3)C(=O)c2ccccc2C1=O` [A-b-22], for which the IC50 in series [2] (setting [3]) worked out at 0.28 µM. In the case of `CC1=C(Cc2ccc3c(c2)OC(C)(C)O3)C(=O)c2ccccc2C1=O` [A-b-23], the IC50 in series [2] (setting [3]) turned out to be 0.152 µM. For the compound `CC1=C(Cc2ccc3c(c2)OC(F)(F)O3)C(=O)c2ccccc2C1=O` [A-b-24], the IC50 in series [2] (setting [3]) was 0.077 µM; in series [2] (setting [4]), under 0.1 µM. Consider `CC1=C(Cc2cccs2)C(=O)c2ccccc2C1=O` [A-b-28], for which the Tox/L6 in series [1] worked out at 5.2 µM. Besides, the 50% inhibitory concentration (IC50) in series [2] (setting [3]) turned out to be 0.115 µM. In turn, `CC1=C(CC2CCCCC2)C(=O)c2ccccc2C1=O` [A-b-29] came in with a Tox/L6 in series [1] of 229.9 µM. For the same compound, the IC50 in series [2] (setting [3]) came to 0.913 µM. The corresponding values for `CC1=C(Cc2cccc(C#N)c2)C(=O)c2cc(F)ccc2C1=O` [B-a-30] are 33.3 µM and 0.326 µM. The corresponding values for `CC1=C(Cc2ccccc2)C(=O)c2cc(F)ccc2C1=O` [B-a-31] are 174.5 µM and 0.3 µM.

As for `CC1=C(Cc2ccc([N+](=O)[O-])c(F)c2)C(=O)c2cc(F)ccc2C1=O` [B-a-32], the Tox/L6 in series [1] was determined as 107.4 µM. In addition, the IC50 in series [2] (setting [3]) worked out at 0.705 µM. For the compound `CC1=C(Cc2ccc(F)c(I)c2)C(=O)c2cc(F)ccc2C1=O` [B-a-33], the concentration for half-maximal inhibition (IC50) in series [2] (setting [3]) amounted to 0.376 µM. Still for that read-out and setting: under `CC1=C(Cc2ccc(Br)cc2C(F)(F)F)C(=O)c2cc(F)ccc2C1=O` [B-a-34] stands 0.169 µM; under `CC1=C(Cc2ccc(F)c(I)c2)C(=O)c2ccccc2C1=O` [B-b-33], 0.136 µM. Still for that read-out and setting: for `CC1=C(Cc2ccc(Br)cc2C(F)(F)F)C(=O)c2ccccc2C1=O` [B-b-34] the value was 0.078 µM; for `CC1=C(Cc2ccc3scnc3c2)C(=O)c2cc(F)ccc2C1=O` [C-a-40], 2.06 µM. Regarding `CC1=C(Cc2ccc3ncsc3c2)C(=O)c2cc(F)ccc2C1=O` [C-a-41], the IC50 in series [2] (setting [3]) is 2.53 µM.
